From patent publication US10787444B2, “Compounds for the modulation of myc activity” (Syros Pharmaceuticals, Inc., priority 2015, dated 2020)
Structures can show the parent of a compound that is named as a salt. Where two headings read alike, the source gives them in different places.

Assays:
[1] = tested on: human small lung cancer cell line H2171; experiment: Cell Viability Assay (ATPlite); format: cell-based; conditions: H2171 cells, three days, ATPlite, calculated IC50 class, read-out: H2171 Activity
Experimental: Compounds of the invention were assayed for cell viability using the human small lung cancer cell line H2171 as described in the following protocol. Cells were counted and adjusted to 20,000 cells/mL. Using a Biotek EL406, 50 μL of cells in media were distributed into 384 well white plates from Thermo. Immediately after plating, compound in DMSO was distributed to plates. Compounds were added to plates using a 50 nL 384 well pin transfer manifold on a Janus workstation. Stocks were arrayed in 10 point dose response in DMSO stock in 384 well Greiner compound plates. After the addition of compounds, plates were incubated for three days in a 37° C. incubator. Cell viability was read out using ATPlite from Perkin Elmer. Lyophilized powder was resuspended in lysis buffer and diluted 1:2 with deionized water. 25 μL of this solution was added to each well using the Biotek liquid handler. Plates were incubated for 15 minutes at room temperature before signal was read on an Envision Plate Reader. The data from this assay are summarized in Tables 2 and 3 below (H2171 activity).

c-Myc/Max/Ebox DNA = target: T1, c-Myc/Max/Ebox DNA (Homo sapiens, UniProt P01106); experiment: c-Myc/Max/Ebox DNA AlphaScreen Assay; format: binding; conditions: calculated IC50 class
T1 construct: his6 (cleaved yes)
Experimental: Compounds of the invention were assayed for c-Myc/Max/EBox activity as described in the following protocol. Human his6-c-Myc and his6-Max were used with biotinylated DNA containing a single Ebox sequence (biotin[…]) purchased from MWG Operon. Free c-Myc was generated from his6-c-Myc through thrombin cleavage of the his6 tag. For 384-well plate assays, 10 μL of a 2× solution of free c-Myc (20 nM final), Ni^2+ coated Acceptor Beads (25 μg/ml final), and biotinylated Ebox oligo (10 nM final) were added to 384-well plates with a Biotek EL406 liquid handler. 50 nL of compounds from stock plates were added by pin transfer using a Janus Workstation (PerkinElmer), allowing the compounds to interact with c-Myc prior to c-Myc binding with Max. In the current assay, DMSO was not allowed to exceed 2% v/v of the assay. 10 μl of 2× master mix containing streptavidin-coated donor beads (25 μg/ml final) and his6-Max (5 nM) were added. AlphaScreen measurements were performed on an Envision plate reader (PerkinElmer) utilizing the manufacturer's protocol.
Both master mixes were made in room temperature assay buffer (50 mM HEPES, 150 mM NaCl, 0.2% w/v BSA, 0.02% w/v Tween20, 40 μg/ml glycogen, 500 μM DTT, pH 8.0, wherein both DTT and glycogen were added fresh). Alpha beads were added to respective master solutions. All subsequent steps were performed in low light conditions. Solution 1:2× solution of components with final concentrations of c-Myc Ni-coated Acceptor Beads (25 μg/ml), and biotinylated Ebox oligo (10 nM). Solution 2:2× solution of streptavidin-coated donor beads (25 μg/ml final) and his6-Max 10 μL. […] 50 nL of compounds from stock plates were added by pin transfer using a Janus Workstation. Solution 2 (10 μl) was added with the liquid handler. Plates were sealed with foil to block light exposure and prevent evaporation. Plates were very briefly centrifuged followed by 2 hour incubation. […] Excitation was at 680 nm for donor bead release of singlet oxygen and emission was read with a bandpass filter from 520-620 nm.

[2] = Homo sapiens, NCI-H2171, 72 h, Table 2, compounds of FIG. 1
[3] = Homo sapiens, NCI-H2171, 72 h, Table 3, compounds of FIG. 2

T1 sequence (P01106 whole entry): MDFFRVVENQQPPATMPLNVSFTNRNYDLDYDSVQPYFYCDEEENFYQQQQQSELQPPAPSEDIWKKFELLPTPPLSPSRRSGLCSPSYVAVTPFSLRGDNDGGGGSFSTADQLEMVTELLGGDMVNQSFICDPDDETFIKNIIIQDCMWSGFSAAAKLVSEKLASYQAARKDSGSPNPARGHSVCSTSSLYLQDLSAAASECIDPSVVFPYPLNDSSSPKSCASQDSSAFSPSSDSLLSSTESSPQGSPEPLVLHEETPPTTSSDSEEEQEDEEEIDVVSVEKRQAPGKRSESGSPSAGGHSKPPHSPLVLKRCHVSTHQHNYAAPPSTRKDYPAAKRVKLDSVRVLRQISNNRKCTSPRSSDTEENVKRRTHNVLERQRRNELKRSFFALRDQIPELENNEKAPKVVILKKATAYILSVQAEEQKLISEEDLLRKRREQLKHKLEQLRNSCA

| Compound | IC50 [1, 2] [nM] | IC50 (c-Myc/Max/Ebox DNA; Table 2, compounds of FIG. 1) [nM] | IC50 [1, 3] [nM] | IC50 (c-Myc/Max/Ebox DNA; Table 3, compounds of FIG. 2) [nM] | IC50 ([1]; Table 2, compounds of FIG. 1) [nM] |
| --- | --- | --- | --- | --- | --- |
| CC[C@@H](C)NCCC(=O)Nc1sc2c(c1-c1nc3ccccc3s1)CCNC2 [Compound 153, (R)—N-(3-(benzo[d]thiazol-2-yl)-4,5,6,7-tetrahydrothieno[2,3-c]pyridin-2-yl)-3-(sec-butylamino)propanamide] | < 300 | 300 to 1000 |  |  |  |
| CCN(C)CCC(=O)Nc1sc2c(c1-c1nc3ccccc3s1)CCN(C(C)C)C2 [Compound 572] | < 300 | 300 to 1000 |  |  |  |
| CC(=O)Nc1sc2c(c1-c1nc3ccccc3s1)CCC(NC1CCNCC1)C2 (stereo not drawn) [Compound 227, N-(3-(benzo[d]thiazol-2-yl)-6-(piperidin-4-ylamino)-4,5,6,7-tetrahydrobenzo[b]thiophen-2-yl)acetamide] |  |  | < 300 | > 10000 |  |
| COCCNCCC(=O)Nc1sc2c(c1-c1nc3cc(-c4ccncc4)ccc3s1)CC(C)NC2C (single isomer, unassigned) [Compound 521, N-(5,7-dimethyl-3-(5-(pyridin-4-yl)benzo[d]thiazol-2-yl)-4,5,6,7-tetrahydrothieno[2,3-c]pyridin-2-yl)-3-((2-methoxyethyl)amino)propanamide] | < 300 | < 300 |  |  |  |
| CC[C@H](C)NCCC(=O)Nc1sc2c(c1-c1nc3cc(C(F)(F)F)ccc3s1)CC(C)NC2C (single isomer, unassigned) [Compound 584] | < 300 | < 300 |  |  |  |
| CCC(C)NCCC(=O)Nc1sc2c(c1-c1nc3ccccc3s1)CCN(C1COC1)C2 (stereo not drawn) [Compound 137, N-(3-(benzo[d]thiazol-2-yl)-6-(oxetan-3-yl)-4,5,6,7-tetrahydrothieno[2,3-c]pyridin-2-yl)-3-(sec-butylamino)propanamide] | > 10000 | 1000 to 10000 |  |  |  |
| O=C(CCN[C@@H]1C[C@H]2CNC[C@H]2C1)Nc1sc2c(c1-c1nc3ccccc3s1)CCNC2 [Compound 573, N-(3-(Benzo[d]thiazol-2-yl)-4,5,6,7-tetrahydrothieno[2,3-c]pyridin-2-yl)-3-(((3aR,5s,6aS)-octahydrocyclopenta[c]pyrrol-5-yl)amino)propanamide] | 300 to 1000 | 300 to 1000 |  |  |  |
| COCCNCCC(=O)Nc1sc2c(c1-c1nc3cc(-c4cccc(C(=O)N(C)C)c4)ccc3s1)CCNC2 [compound 394] | < 300 | < 300 |  |  |  |
| CC[C@H](C)NCCC(=O)Nc1sc2c(c1-c1nc3cc(-c4ccncc4)ccc3s1)CCN(CC)C2 [Compound 588, (S)-3-(sec-butylamino)-N-(6-ethyl-3-(5-(pyridin-4-yl)benzo[d]thiazol-2-yl)-4,5,6,7-tetrahydrothieno[2,3-c]pyridin-2-yl)propanamide] | < 300 | < 300 |  |  |  |
| CC[C@H](C)NCCC(=O)Nc1sc2c(c1-c1nc3cc(C(F)(F)F)ccc3s1)CCN(C(C)C)C2 [Compound 578, (S)-3-(sec-butylamino)-N-(6-isopropyl-3-(5-(trifluoromethyl)benzo[d]thiazol-2-yl)-4,5,6,7-tetrahydrothieno[2,3-c]pyridin-2-yl)propanamide] | < 300 | 300 to 1000 |  |  |  |
| CNCCC(=O)Nc1sc2c(c1-c1nc3ccccc3s1)CCNC2 [Compound 128, N-(3-(benzo[d]thiazol-2-yl)-4,5,6,7-tetrahydrothieno[2,3-c]pyridin-2-yl)-3-(methylamino)propanamide] | < 300 | < 300 |  |  |  |
| CC(=O)Nc1sc2c(c1-c1nc3ccccc3s1)C[C@H](C)N[C@@H]2C [Compound 219, N-((5S,7R)-3-(benzo[d]thiazol-2-yl)-5,7-dimethyl-4,5,6,7-tetrahydrothieno[2,3-c]pyridin-2-yl)acetamide] |  |  | < 300 | 1000 to 10000 |  |
| CC(C)NCCC(=O)Nc1sc2c(c1-c1nc3ccccc3s1)CC(C)NC2C (single isomer, unassigned) [Compound 195, N-(3-(benzo[d]thiazol-2-yl)-5,7-dimethyl-4,5,6,7-tetrahydrothieno[2,3-c]pyridin-2-yl)-3-(isopropylamino)propanamide] |  | < 300 |  |  | < 300 |
| COCCNCCC(=O)Nc1sc2c(c1-c1nc3cc(-c4ccncc4)ccc3s1)CC(C)NC2C (single isomer, unassigned) [Compound 523, N-(5,7-dimethyl-3-(5-(pyridin-4-yl)benzo[d]thiazol-2-yl)-4,5,6,7-tetrahydrothieno[2,3-c]pyridin-2-yl)-3-((2-methoxyethyl)amino)propanamide] |  | 1000 to 10000 |  |  | 300 to 1000 |
| CC(C)NCCC(=O)Nc1sc2c(c1-c1nc3cc(-n4ccnc4)ccc3s1)CCNC2 [Compound 178, N-(3-(5-(1H-imidazol-1-yl)benzo[d]thiazol-2-yl)-4,5,6,7-tetrahydrothieno[2,3-c]pyridin-2-yl)-3-(isopropylamino)propanamide dihydrochloride] | < 300 | < 300 |  |  |  |
| COCCNCCC(=O)Nc1sc2c(c1-c1nc3cc(-c4cccnc4)ccc3s1)CC(C)NC2C (single isomer, unassigned) [Compound 524, N-(5,7-Dimethyl-3-(5-(pyridin-3-yl)benzo[d]thiazol-2-yl)-4,5,6,7-tetrahydrothieno[2,3-c]pyridin-2-yl)-3-((2-methoxyethyl)amino)propanamide] | 300 to 1000 | < 300 |  |  |  |
| CC(C)NCCC(=O)Nc1sc2c(c1-c1nc3cc(NS(C)(=O)=O)ccc3s1)CCNC2 [compound 581] | < 300 | < 300 |  |  |  |
| COCCNCCC(=O)Nc1sc2c(c1-c1nc3ccc(-c4cc[nH]n4)cc3s1)CCNC2 [compound 361] | < 300 | < 300 |  |  |  |
| CC[C@@H](C)NCCC(=O)Nc1sc2c(c1-c1nc3cc(F)ccc3s1)CCNC2 [Compound 185, (R)-3-(sec-butylamino)-N-(3-(5-fluorobenzo[d]thiazol-2-yl)-4,5,6,7-tetrahydrothieno[2,3-c]pyridin-2-yl)propanamide] | < 300 | < 300 |  |  |  |
| COCCNCCC(=O)Nc1sc2c(c1-c1nc3cc(-c4ccc(C(=O)N5CCOCC5)cc4)ccc3s1)CCNC2 [compound 334] | < 300 | < 300 |  |  |  |
| CC(=O)Nc1sc2c(c1-c1nc3ccccc3s1)CCNC2 [Compound 202, N-(3-(benzo[d]thiazol-2-yl)-4,5,6,7-tetrahydrothieno[2,3-c]pyridin-2-yl)acetamide] |  |  | < 300 | 1000 to 10000 |  |
| CCC(C)NCCC(=O)N(C)c1sc2c(c1-c1nc3ccccc3s1)CCNC2 (stereo not drawn) [Compound 301, N-(3-(benzo[d]thiazol-2-yl)-4,5,6,7-tetrahydrothieno[2,3-c]pyridin-2-yl)-3-(sec-butylamino)-N-methylpropanamide] | 1000 to 10000 | 1000 to 10000 |  |  |  |
| CC(C)NCCC(=O)Nc1sc2c(c1-c1nc3ccc(-c4ccncc4)cc3s1)CCNC2 [compound 192] | < 300 | < 300 |  |  |  |
| CC[C@H](C)NCCC(=O)Nc1sc2c(c1-c1nc3ccccc3s1)CCN(C1CC(F)(F)C1)C2 [Compound 619, (S)—N-(3-(benzo[d]thiazol-2-yl)-6-(3,3-difluorocyclobutyl)-4,5,6,7-tetrahydrothieno[2,3-c]pyridin-2-yl)-3-(sec-butylamino)propanamide] | < 300 | 1000 to 10000 |  |  |  |
| COCCNCCC(=O)Nc1sc2c(c1-c1nc3ccccc3s1)CC(C)NC2C (stereo not drawn) [Compound 506, N-(3-(Benzo[d]thiazol-2-yl)-5,7-dimethyl-4,5,6,7-tetrahydrothieno[2,3-c]pyridin-2-yl)-3-((2-methoxyethyl)amino)propanamide] |  | 300 to 1000 |  |  | 1000 to 10000 |
| CC[C@H](C)NCCC(=O)Nc1sc2c(c1-c1nc3cc(C(F)(F)F)ccc3s1)CC(C)NC2C (single isomer, unassigned) [Compound 587] |  | > 10000 |  |  | 300 to 1000 |
| COCCNCCC(=O)Nc1sc2c(c1-c1nc3cc(-c4cnoc4)ccc3s1)CCNC2 [compound 481] | < 300 | < 300 |  |  |  |
